From patent US9115137B2, “2,3,4,5-tetrahydro-1H-pyrido[4,3-B]indole compounds and methods of use thereof” (priority 2008, dated 2015)

What was measured:
[1] = target: T1, human recombinant serotonin (5-Hydroxytryptamine) 5-HT7 receptor (Homo sapiens, UniProt P34969); test: Serotonin 5-HT7 radioligand binding ([3H]LSD); conditions: compound at 1 μM; CHO cells; read-out: Serotonin (1 μM) 5-HT7, percent inhibition of specific binding
T1 construct: expressed in transfected cells; host or cells: CHO cells
T1 sequence (P34969 whole entry): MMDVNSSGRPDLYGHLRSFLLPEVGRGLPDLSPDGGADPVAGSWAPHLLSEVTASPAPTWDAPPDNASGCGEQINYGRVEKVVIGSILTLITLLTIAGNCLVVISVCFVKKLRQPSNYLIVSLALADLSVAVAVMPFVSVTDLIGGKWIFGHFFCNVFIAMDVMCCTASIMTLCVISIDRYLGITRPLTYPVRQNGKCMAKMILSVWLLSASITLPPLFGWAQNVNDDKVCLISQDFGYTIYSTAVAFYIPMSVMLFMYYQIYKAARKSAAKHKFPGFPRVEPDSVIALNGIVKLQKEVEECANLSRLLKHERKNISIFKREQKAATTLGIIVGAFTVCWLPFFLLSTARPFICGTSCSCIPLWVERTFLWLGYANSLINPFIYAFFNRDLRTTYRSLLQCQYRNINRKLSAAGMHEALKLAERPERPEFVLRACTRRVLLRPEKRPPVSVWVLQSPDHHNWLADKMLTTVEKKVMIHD
Protocol: To evaluate in radioligand binding assays the activity of compounds of the invention, human recombinant serotonin (5-Hydroxytryptamine) 5-HT7 receptor expressed in Chinese hamster ovary (CHO) cells (Roth, B. L. et al., J. Pharmacol. Exp. Ther. 268:1403, 1994; Shen, Y. et al., J. Biol. Chem. 268:18200, 1993) in a modified Tris-HCl buffer (50 mM Tris-HCl, pH 7.4, 10 mM MgCl2, 0.5 mM EDTA) was used. Compounds of invention were incubated with 5.5 nM [^3H] Lysergic acid diethylamide (LSD) for 2 hours at 25° C. Non-specific binding was estimated in the presence of 10 μM Serotonin (5-HT). Receptor proteins were filtered and washed, the filters were then counted to determine [^3H]LSD specifically bound. Compounds were screened at 1 μM or lower, using 1% DMSO as vehicle. Biochemical assay results are presented as the percent inhibition of specific binding in Table 7.

[2] = test system: rat central imidazoline I2 receptor; test: Central imidazoline I2 radioligand binding ([3H]Idazoxan); conditions: compound at 1 μM; Wistar Rat cerebral cortex
Protocol: To evaluate in radioligand binding assays the activity of compounds of the invention, rat central imidazoline I2 receptor obtained from Wistar Rat cerebral cortex (Brown, C. M. et al., Br. J. Pharmacol. 99:803, 1990) in a modified Tris-HCl buffer (50 mM Tris-HCl buffer, pH 7.4, 0.5 mM EDTA) was used. Compounds of the invention were incubated with 2 nM [^3H]Idazoxan for 30 minutes at 25° C. Non-specific binding was estimated in the presence of 1 μM Idazoxan. Receptor proteins were filtered and washed, the filters were then counted to determine [^3H]Idazoxan specifically bound. Compounds were screened at 1 μM or lower, using 1% DMSO as vehicle. Compounds of the invention were tested in this biochemical assay and percent inhibition of specific binding was determined. Biochemical assay results are presented as the percent inhibition of specific binding in Table 5.

[3] = target: T2, human recombinant serotonin (5-Hydroxytryptamine) 5-HT2A receptor (Homo sapiens, UniProt P28223); test: Serotonin 5-HT2A radioligand binding ([3H]Ketanserin); conditions: compound at 1 μM; CHO-K1 cells; read-out: Serotonin (1 μM) 5-HT2A, percent inhibition of specific binding
T2 construct: expressed in transfected cells; host or cells: CHO-K1 cells
T2 sequence (P28223 whole entry): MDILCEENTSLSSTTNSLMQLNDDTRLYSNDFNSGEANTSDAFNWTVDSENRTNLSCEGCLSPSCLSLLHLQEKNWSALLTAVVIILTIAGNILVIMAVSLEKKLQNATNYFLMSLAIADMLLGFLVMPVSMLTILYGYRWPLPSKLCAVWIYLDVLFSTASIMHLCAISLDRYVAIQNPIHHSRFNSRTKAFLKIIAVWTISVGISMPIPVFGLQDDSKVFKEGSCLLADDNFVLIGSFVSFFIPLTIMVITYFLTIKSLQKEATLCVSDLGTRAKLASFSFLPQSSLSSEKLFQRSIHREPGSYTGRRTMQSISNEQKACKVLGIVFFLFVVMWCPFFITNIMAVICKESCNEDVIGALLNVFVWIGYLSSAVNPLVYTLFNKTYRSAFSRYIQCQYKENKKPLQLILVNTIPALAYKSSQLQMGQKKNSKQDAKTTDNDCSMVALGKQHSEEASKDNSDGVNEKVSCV
Protocol: To evaluate in radioligand binding assays the activity of compounds of the invention, human recombinant serotonin (5-Hydroxytryptamine) 5-HT2A receptor expressed in Chinese hamster ovary (CHO-K1) cells (Bonhaus, D. W. et al. Br. J. Pharmacol. 115:622, 1995; Saucier, C. and Albert, P. R., J. Neurochem. 68:1998, 1997) in a 50 mM Tris-HCl buffer, pH 7.4, was used. Compounds of the invention were incubated with 0.5 nM [^3H]Ketanserin for 60 minutes at 25° C. Non-specific binding was estimated in the presence of 1 μM Mianserin. Receptor proteins were filtered and washed, the filters were then counted to determine [^3H] Ketanserin specifically bound. Compounds were screened at 1 μM or lower, using 1% DMSO as vehicle. Biochemical assay results are presented as the percent inhibition of specific binding in Table 7.

[4] = target: T3, rat adrenergic α1B receptor (Rattus norvegicus, UniProt P15823); test: Adrenergic α1B radioligand binding ([3H]Prozosin); conditions: compound at 1 μM; Wistar Rat liver; read-out: Adrenergic (1 μM) α1B, percent inhibition of specific binding
T3 construct: obtained from Wistar Rat liver; from tissue; host or cells: Wistar rat liver
T3 sequence (P15823 1-515): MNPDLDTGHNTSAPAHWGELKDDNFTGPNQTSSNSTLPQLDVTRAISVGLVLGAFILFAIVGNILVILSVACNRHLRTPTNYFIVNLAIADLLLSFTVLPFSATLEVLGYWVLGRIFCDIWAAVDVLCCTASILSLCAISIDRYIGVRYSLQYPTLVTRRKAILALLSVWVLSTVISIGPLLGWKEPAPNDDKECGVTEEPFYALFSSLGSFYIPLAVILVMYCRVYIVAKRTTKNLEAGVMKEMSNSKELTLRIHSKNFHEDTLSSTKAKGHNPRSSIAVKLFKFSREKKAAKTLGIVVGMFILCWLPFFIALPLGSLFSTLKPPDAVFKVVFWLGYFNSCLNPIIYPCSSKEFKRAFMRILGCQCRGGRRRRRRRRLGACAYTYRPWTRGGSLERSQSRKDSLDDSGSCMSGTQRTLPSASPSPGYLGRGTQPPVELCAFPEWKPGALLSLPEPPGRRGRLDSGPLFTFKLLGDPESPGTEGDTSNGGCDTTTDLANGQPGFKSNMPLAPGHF
Protocol: To evaluate in radioligand binding assays the activity of compounds of the invention, rat adrenergic α1B receptor obtained from Wistar Rat liver (Garcia-S'ainz, J. A. et al., Biochem. Biophys. Res. Commun. 186:760, 1992; Michel A. D. et al. Br. J. Pharmacol. 98:883, 1989) in a modified Tris-HCl buffer (50 mM Tris-HCl buffer, pH 7.4, 0.5 mM EDTA) was used. Compounds of the invention were incubated with 0.25 nM [^3H]Prozosin for 60 minutes at 25° C. Non-specific binding was estimated in the presence of 10 μM phentolamine. Receptor proteins were filtered and washed, the filters were then counted to determine [^3H]Prozosin specifically bound. Compounds were screened at 1 μM or lower, using 1% DMSO as vehicle. Compounds of the invention were tested in this biochemical assay and percent inhibition of specific binding was determined. Biochemical assay results are presented as the percent inhibition of specific binding in Table 6.

Structure (SMILES) | inhibition at 1 µM [1] [%] | Imidazoline I2 Central (1 μM), percent inhibition of specific binding [2] [%] | inhibition at 1 µM [3] [%] | inhibition at 1 µM [4] [%]
Cc1ccc2c(c1)c1c(n2CCC(=O)NC2CCCC2)CCN(C)C1 [Compound 4, N-cyclopentyl-3-(1,2,3,4-tetrahydro-2,8-dimethylpyrido[4,3-b]indol-5-yl)propanamide] | 59 | 54 | 53 | 41
CCOC(=O)CCCn1c2c(c3cc(C)ccc31)CN(C)CC2 [Compound 5, ethyl 4-(1,2,3,4-tetrahydro-2,8-dimethylpyrido[4,3-b]indol-5-yl)butanoate] | 95 | 53 | 91 | 77
CCNC(=O)CCCn1c2c(c3cc(C)ccc31)CN(C)CC2 [Compound 6, N-ethyl-4-(1,2,3,4-tetrahydro-2,8-dimethylpyrido[4,3-b]indol-5-yl)butanamide] | 43 | 52 | 30 | 31
Cc1ccc2c(c1)c1c(n2CCNC(=O)OCC(Cl)(Cl)Cl)CCN(C)C1 [Compound 8, 2,2,2-trichloroethyl 2-(1,2,3,4-tetrahydro-2,8-dimethylpyrido[4,3-b]indol-5-yl)ethylcarbamate] | 75 | 57 | 99 | 80
Cc1ccc2c(c1)c1c(n2CCNC(=O)C2CCCNC2)CCN(C)C1 (centres unmarked) [Compound 9, N-(2-(1,2,3,4-tetrahydro-2,8-dimethylpyrido[4,3-b]indol-5-yl)ethyl)piperidine-3-carboxamide] | -8 | 9 | 15 | 21
